This passage reports IC50 results from patent US5011992A, “Pharmacologically active substituted benzamides” (Bristol-Myers Squibb Company, priority 1989, dated 1991).

pIC50: −log10 of the molar value. Where a name gives a salt, the structure may show the parent alone.

The assay addresses T1, dopaminergic (D2) receptors (Rattus norvegicus, UniProt P61169).
T1 construct: Homogenates (Brinkmann Polytron) of the corpus striatum in cold HEPES.KOH buffer; from tissue; host or cells: rat corpus striatum (washed membrane homogenate; rats from Charles River)
The assay is described as follows: 3H-Spiperone Displacement (striatal rat brain homogenates). In kind it is binding. The conditions noted are these: rat striatal homogenate, approx. 100 pM 3H-spiperone, 37° C., 15 min. As for the experimental part:
(A) ^3 H-Spiperone Displacement
Rats (150±10 g; Charles River) were decapitated, the corpus striatum dissected out and frozen on dry ice. The tissues were pooled and stored at -80° C. until used. Homogenates (Brinkmann Polytron) of the corpus striatum in cold HEPES.KOH buffer (final pH=7.4) were centrifuged at 39,000× G. The supernatant was discarded and the pellets were re-suspended in HEPES.KOH buffer and re-centrifuged as above.
Tests to determine the Inhibitory Concentration50 (IC50) of the compounds of Formula I and reference compounds versus ^3 H-spiperone were conducted as follows. Tubes containing either 100 μL of buffer mixture (for total binding), 100 μL of buffer mixture plus 100 μL of 10^-4 M D(+)-butaclamol (for blanks, i.e. non-specific binding), or 100 μL of buffer mixture containing 10^-7, 10^-6 or 10^-5 M test compound were prepared. To each were added 100 μL of a solution of ^3 H-spiperone (New England Nuclear) in buffer mixture (2000 c.p.m. in the incubation mixture) and 800 μL of the striatal tissue suspension. The tubes were then diluted to 1 mL with buffer mixture, giving a final concentration of 10^-8, 10^-7 or 10^-6 M test compound and approximately 100 pM ^3 H-spiperone. The samples were incubated at 37° C. for 15 minutes, filtered in vacuo on glass fiber filters and counted by liquid scintillation spectrometry. […] All samples were run in duplicate.

By pIC50 is commonly meant the IC50 on a negative log10 scale, so that one unit is a factor of ten. Low readings indicate a large IC50, high ones a small IC50.

T1 sequence (P61169 whole entry): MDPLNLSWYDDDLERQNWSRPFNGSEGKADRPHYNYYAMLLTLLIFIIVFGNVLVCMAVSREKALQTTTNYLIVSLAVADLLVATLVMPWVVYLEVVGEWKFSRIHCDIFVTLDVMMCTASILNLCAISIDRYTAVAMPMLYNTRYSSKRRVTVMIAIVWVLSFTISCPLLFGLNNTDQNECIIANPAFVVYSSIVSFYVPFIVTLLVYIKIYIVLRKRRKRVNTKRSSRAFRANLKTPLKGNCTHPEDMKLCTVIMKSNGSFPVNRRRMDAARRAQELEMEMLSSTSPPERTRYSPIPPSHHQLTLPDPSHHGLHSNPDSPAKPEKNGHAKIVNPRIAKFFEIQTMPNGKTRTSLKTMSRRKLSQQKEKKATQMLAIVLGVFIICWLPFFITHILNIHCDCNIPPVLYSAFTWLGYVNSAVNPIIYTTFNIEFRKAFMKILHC

Consider `CCN(CC)CCNC(=O)c1cc(Cl)c(N)cc1OCCOCCOC` [Example 46, 4-Amino-5-chloro-N-[2-(diethylamino)ethyl]-2-(2-methoxyethoxyethyl)oxybenzamide], for which the pIC50 was below 6.00.
Regarding `CCN(CC)CCNC(=O)c1cc(Cl)c(N)cc1OCC(=O)OC` [Example 15, 4-Amino-5-chloro-N-[2-(diethylamino)ethyl]-2-(2-methoxy-2-oxoethoxy)benzamide], the pIC50 was below 6.00.
The value for `CCN(CC)CCNC(=O)c1cc(Cl)c(N)cc1OCC(O)Cc1ccccc1` (stereo not drawn) [Example 33, 4-Amino-5-chloro-N-[2-(diethylamino)ethyl]-2-[2-(2-hydroxy-3-phenylpropyl)]oxybenzamide] was below 6.00.
As to `CCN(CC)CCNC(=O)c1cc(Cl)c(N)cc1OC(C)C(C)O` (mixture of isomers) [Example 41, 4-Amino-5-chloro-N-2-(diethylamino)ethyl]-2-[(2-hydroxy)but-3-yl]oxybenzamide (mixture of threo and erythro isomers)], the negative logarithm of the IC50 (pIC50) is below 6.00.
The figure for `CCN(CC)CCNC(=O)c1cc(Cl)c(N)cc1OC1CCCCC1=O` (stereo not drawn) [Example 9, 4-Amino-5-chloro-2-(cyclohexanon-2-yl)oxy-N-[2-(diethylamino)ethyl]benzamide] is below 6.00; for `CCN(CC)CCNC(=O)c1cc(Cl)c(N)cc1OCC(C)=NO` [Example 10, 4-Amino-5-chloro-N-[2-(diethylamino)ethyl]-2-[(2-hydroxyimino)propan-1-yl]oxybenzamide] it is below 6.00; for `C=CCC(Oc1cc(N)c(Cl)cc1C(=O)NCCN(CC)CC)C(C)=O` (stereo not drawn) [Example 24, 4-Amino-5-chloro-N-[2-(diethylamino)ethyl]-2-(5-hexen-2-on-3-yl)-oxybenzamide hydrochloride] it is below 6.00.
`CCN(CC)CCNC(=O)c1cc(Cl)c(N)cc1OC(C)C#N` (stereo not drawn) [Example 14] gave a negative-log IC50 (pIC50) below 6.00.
`CCC(Oc1cc(N)c(Cl)cc1C(=O)NCCN(CC)CC)C(C)=O` (stereo not drawn) [Example 25, 4-Amino-5-chloro-N-[2-(diethylamino)ethyl]-2-(pentan-2-on-3-yl)-oxybenzamide]: the negative logarithm of the IC50 (pIC50) is below 6.00.
With `CCN(CC)CCNC(=O)c1cc(Cl)c(N)cc1OCC1=NCCN1` [Example 51, 4-Amino-5-chloro-N-[2-(diethylamino)ethyl]-2-(1H-4,5-dihydroimidazol-2-yl)methoxybenzamide], the pIC50 was below 6.00.
`CCN(CC)CCNC(=O)c1cc(Cl)c(N)cc1OC(C)(C)C(C)=O` [Example 31, 4-Amino-5-chloro-N-2-(diethylamino)ethyl]-2-[(3-methyl)butan-2-on-3-yl]oxybenzamide monohydrate] had a pIC50 below 6.00.
Molecule `CCN(CC)CCNC(=O)c1cc(Cl)c(N)cc1OCC(=O)Cc1ccccc1` [Example 30] showed a pIC50 below 6.00.
On to `CCN(CC)CCNC(=O)c1cc(Cl)c(N)cc1OCCO` [Example 2, 4-Amino-5-chloro-N-[2-(diethylamino)ethyl]-2-(2-hydroxyethoxy)benzamide], for which the negative logarithm of the IC50 (pIC50) was below 6.00.
The value for `CCN(CC)CCNC(=O)c1cc(Cl)c(N)cc1OCc1ccccn1` [Example 45, 4-Amino-5-chloro-N-[2-(diethylamino)ethyl]-2-(2-pyridinomethyl)-oxybenzamide] was below 6.00; that for `CCN(CC)CCNC(=O)c1cc(Cl)c(N)cc1OCC(=O)C(C)C` [Example 29] was below 6.00; that for `CCN(CC)CCNC(=O)c1cc(Cl)c(N)cc1OCC1OCCO1` [Example 43] was below 6.00.
The value for `CCN(CC)CCNC(=O)c1cc(Cl)c(N)cc1OCC1COC(C)(C)O1` (stereo not drawn) [Example 18, 4-Amino-5-chloro-N-[2-(diethylamino)ethyl]-2-(2,2-dimethyl-1,3-dioxalan-4-yl)methoxybenzamide] was below 6.00; that for `CCN(CC)CCNC(=O)c1cc(Cl)c(N)cc1OC(C)C(C)=O` (stereo not drawn) [Example 7, 4-Amino-2-(butan-2-on-3-yl)oxy-5-chloro-N-[2-(diethylamino)-ethyl]benzamide] was below 6.00; that for `CCCC(=O)COc1cc(N)c(Cl)cc1C(=O)NCCN(CC)CC` [Example 27, 4-Amino-5-chloro-N-[2-(diethylamino)ethyl]-2-(pentan-2-on-1-yl)oxybenzamide] was below 6.00.
Molecule `CCN(CC)CCNC(=O)c1cc(Cl)c(N)cc1OCC#N` [Example 13, 4-Amino-5-chloro-2-cyanomethoxy-N-[2-(diethylamino)ethyl]benzamide] showed a pIC50 below 6.00.
The figure for `CCN(CC)CCNC(=O)c1cc(Cl)c(N)cc1OCCOC` [Example 1, 4-Amino-5-chloro-N-[2-(diethylamino)ethyl]-2-(2-methoxyethoxy)-benzamide] is below 6.00; for `CCN(CC)CCNC(=O)c1cc(Cl)c(N)cc1OCOCCOC` [Example 4] it is below 6.00.
The value for `CCN(CC)CCNC(=O)c1cc(Cl)c(N)cc1OCc1cc(C)no1` [Example 19, 4-Amino-5-chloro-N-[2-(diethylamino)ethyl]-2-(3-methylisoxazol-5-yl)methoxybenzamide] was below 6.00; that for `CCN(CC)CCNC(=O)c1cc(Cl)c(N)cc1OCC(C)=O` [Example 5, 4-Amino-5-chloro-N-[2-(diethylamino)ethyl]-2-(2-propanon-1-yl)-oxybenzamide] was below 6.00; that for `CCN(CC)CCNC(=O)c1cc(Cl)c(N)cc1OCC(=O)c1ccccc1` [Example 6, 4-Amino-2-(2-phenyl-2-oxoethoxy)-5-chloro-N-[2-(diethylamino)ethyl]benzamid] was below 6.00.
As to `CCC(=O)C(C)Oc1cc(N)c(Cl)cc1C(=O)NCCN(CC)CC` (stereo not drawn) [Example 28, 4-Amino-5-chloro-2-(pentan-3-on-2-yl)oxy-N-(2-diethylaminoethyl)benzamide hydrochloride], the pIC50 is below 6.00.
Consider `CCN(CC)CCNC(=O)c1cc(Cl)c(N)cc1OCCC1(C)OCCO1` [Example 54], for which the negative-log IC50 (pIC50) is below 6.00.
For `CCC(=O)COc1cc(N)c(Cl)cc1C(=O)NCCN(CC)CC` [Example 26, 4-Amino-2-(2-butanon-1-yl)oxy-5-chloro-N-[2-(diethylamino)-ethyl]benzamide], the pIC50 is below 6.00.
The value for `CCN(CC)CCNC(=O)c1cc(Cl)c(N)cc1OCC(C)O` (stereo not drawn) [Example 12, 4-Amino-5-chloro-N-[2-(diethylamino)ethyl]-2-(2-hydroxypropan-1-yl)oxybenzamide] was below 6.00; that for `CCN(CC)CCNC(=O)c1cc(Cl)c(N)cc1OCC(OC)OC` [Example 3] was below 6.00.
